Assay results: patent US20250171431A1, “HETEROCYCLIC INHIBITORS OF IGF-1R FOR TREATMENT OF DISEASE” (HORIZON THERAPEUTICS IRELAND DAC, priority 2023, published 2025)

Each compound was assayed against IGF-1R (Homo sapiens (Human), UniProt P08069) (assay: Example B-1: IGF-1R Assay (PC3 cells, IGF1 stimulation, AlphaLISA)). Conditions: 200 ng/mL IGF1 stimulation, read-out: Biological Activity against IGF-1R IC50.
Assay type: cell-based
Outline: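 Readout is AlphaLISA signal from lysed PC3 cells, expressed as % inhibition versus vehicle and EC80 controls and banded by IC50. Before lysis, the cells were starved of serum for 2 h, exposed to 3× serially diluted compound for 2 h, and stimulated for 30 min with 200 ng/mL IGF1 (final).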

Chain of IGF-1R (P08069 31-1367): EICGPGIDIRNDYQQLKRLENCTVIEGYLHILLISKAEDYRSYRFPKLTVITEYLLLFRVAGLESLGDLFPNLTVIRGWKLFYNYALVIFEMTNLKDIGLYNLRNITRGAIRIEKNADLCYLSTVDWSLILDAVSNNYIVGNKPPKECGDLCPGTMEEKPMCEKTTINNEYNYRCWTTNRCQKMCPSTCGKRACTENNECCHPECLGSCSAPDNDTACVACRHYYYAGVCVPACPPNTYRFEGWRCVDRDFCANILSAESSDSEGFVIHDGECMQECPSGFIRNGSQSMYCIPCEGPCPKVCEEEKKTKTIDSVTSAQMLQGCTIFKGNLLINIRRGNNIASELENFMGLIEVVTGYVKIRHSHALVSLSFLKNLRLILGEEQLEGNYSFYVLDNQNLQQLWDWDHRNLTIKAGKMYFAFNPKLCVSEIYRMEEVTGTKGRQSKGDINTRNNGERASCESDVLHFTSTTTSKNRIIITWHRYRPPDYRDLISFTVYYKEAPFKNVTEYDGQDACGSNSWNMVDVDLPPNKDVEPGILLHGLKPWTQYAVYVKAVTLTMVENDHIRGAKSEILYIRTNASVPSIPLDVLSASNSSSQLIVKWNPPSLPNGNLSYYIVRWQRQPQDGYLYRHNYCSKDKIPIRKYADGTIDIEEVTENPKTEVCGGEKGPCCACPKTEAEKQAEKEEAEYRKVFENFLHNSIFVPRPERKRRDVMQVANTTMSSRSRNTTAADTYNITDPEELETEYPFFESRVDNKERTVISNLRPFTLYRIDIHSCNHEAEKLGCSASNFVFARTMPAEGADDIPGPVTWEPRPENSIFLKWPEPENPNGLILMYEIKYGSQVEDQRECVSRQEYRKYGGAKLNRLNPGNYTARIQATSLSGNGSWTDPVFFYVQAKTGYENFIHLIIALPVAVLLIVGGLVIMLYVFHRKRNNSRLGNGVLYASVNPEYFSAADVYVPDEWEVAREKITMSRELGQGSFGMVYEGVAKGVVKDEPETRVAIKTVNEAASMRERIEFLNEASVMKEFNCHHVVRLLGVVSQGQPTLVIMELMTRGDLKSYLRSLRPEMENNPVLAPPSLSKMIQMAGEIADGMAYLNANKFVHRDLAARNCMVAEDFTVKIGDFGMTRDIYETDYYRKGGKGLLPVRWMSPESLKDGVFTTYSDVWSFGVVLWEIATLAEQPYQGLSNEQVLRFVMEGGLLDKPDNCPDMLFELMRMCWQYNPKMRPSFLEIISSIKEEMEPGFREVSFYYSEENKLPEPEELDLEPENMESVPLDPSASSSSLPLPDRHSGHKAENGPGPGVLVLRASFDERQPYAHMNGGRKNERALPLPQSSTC

| Compound | IC50 [nM] |
| --- | --- |
| COc1cc(Nc2nccc(Nc3cnc4c(OC)cccc4c3)n2)ccc1O[C@H]1C[C@@H](N(C)C)C1 [Compound 312, 4-(8-methoxy-3-quinolylamino)-2-{3-methoxy-4-[(1s,3s)-3-(dimethylamino)cyclobutoxy]phenylamino}pyrimidine] | ≤ 500 |
| COc1cc(Nc2nccc(Nc3cc4cccc(F)c4[nH]c3=O)n2)cnc1N1CCN(CC#N)CC1 [Compound 236, (4-{5-[4-(8-fluoro-2-oxo-1,2-dihydro-3-quinolylamino)-2-pyrimidinylamino]-3-methoxy-2-pyridyl}-1-piperazinyl)acetonitrile] | ≤ 500 |
| COC1CCc2cc(Nc3ccnc(Nc4ccc(OCCCN5CCOCC5)cc4)n3)cnc2C1 (centres unmarked) [Compound 66, 4-(7-methoxy-5,6,7,8-tetrahydro-3-quinolylamino)-2-[p-(3-morpholinopropoxy)phenylamino] pyrimidine] | 500 to 2000 |
| COc1cc(Nc2nccc(Nc3cc4ccccc4nc3C(=O)O)n2)ccc1O[C@H]1C[C@@H](N(C)C)C1 [Compound 296, 3-(2-{3-methoxy-4-[(1s,3s)-3-(dimethylamino)cyclobutoxy]phenylamino}-4-pyrimidinylamino)-2-quinolinecarboxylic acid] | > 10000 |
| COc1cc(Nc2nccc(Nc3cnc4c(c3)CCCO4)n2)ccc1O[C@H]1C[C@@H](N(C)C)C1 [Compound 365, 4-(3,4-dihydro-2H-1-oxa-8-azanaphth-6-ylamino)-2-{3-methoxy-4-[(1s,3s)-3-(dimethylamino)cyclobutoxy]phenylamino}pyrimidine] | ≤ 500 |
| COc1cc(Nc2nccc(Nc3cnc4ccc(C5CC5)cc4c3)n2)ccc1OCCCN1CCOCC1 [Compound 103, 4-(6-cyclopropyl-3-quinolylamino)-2-[3-methoxy-4-(3-morpholinopropoxy)phenylamino]pyrimidine] | ≤ 500 |
| COc1ccc2cc(Nc3ccnc(Nc4ccc(O[C@H]5C[C@H](N(C)C)C5)cc4)n3)cnc2c1 [Compound 355, 4-(7-methoxy-3-quinolylamino)-2-{p-[(1r,3r)-3-(dimethylamino)cyclobutoxy]phenylamino}pyrimidine] | 500 to 2000 |
| CN1CC(Oc2ccc(Nc3nccc(Nc4cnc5ccccc5c4)n3)cc2)C1 [Compound 295, 2-[p-(1-methyl-3-azetidinyloxy)phenylamino]-4-(3-quinolylamino)pyrimidine] | 2000 to 10000 |
| Cc1ccc2cc(Nc3ccnc(Nc4ccc(OCCCN5CCOCC5)cc4)n3)cnc2c1 [Compound 407, 4-(7-methyl-3-quinolylamino)-2-[p-(3-morpholinopropoxy)phenylamino]pyrimidine] | 500 to 2000 |
| COc1cc(Nc2cc(Nc3cnc4ccccc4n3)ccn2)ccc1O[C@H]1C[C@@H](N(C)C)C1 [Compound 262, 2-{3-methoxy-4-[(1s,3s)-3-(dimethylamino)cyclobutoxy]phenylamino}-4-(2-quinoxalinylamino)pyridine] | ≤ 500 |
| COc1nc(N2CCN(C)CC2)ccc1Nc1nccc(Nc2cnc3cc(F)c(F)cc3c2)n1 [Compound 472, 4-(6,7-difluoro-3-quinolylamino)-2-[2-methoxy-6-(4-methyl-1-piperazinyl)-3-pyridylamino]pyrimidine] | ≤ 500 |
| COc1cc(Nc2nccc(Nc3cnc4c(Cl)cccc4c3)n2)ccc1OCCCN1CCCCC1 [Compound 430, 4-(8-chloro-3-quinolylamino)-2-[3-methoxy-4-(3-piperidinopropoxy)phenylamino]pyrimidine] | ≤ 500 |
| CN(C)[C@H]1C[C@H](Oc2ccc(Nc3nccc(Nc4cnc5ccccc5c4)n3)cc2C(F)(F)F)C1 [Compound 36, 4-(3-quinolylamino)-2-{4-[(1r,3r)-3-(dimethylamino)cyclobutoxy]-3-(trifluoromethyl)phenylamino} pyrimidine] | ≤ 500 |
| COc1cc(Nc2nccc(Nc3cnc4c(c3)CC3(CCC3)CC4)n2)ccc1O[C@H]1C[C@H](N(C)C)C1 [Compound 80, 4-(7′,8′-dihydro-5′H-spiro[cyclobutane-1,6′-quinolin]-3′-ylamino)-2-{3-methoxy-4-[(1r,3r)-3-(dimethylamino)cyclobutoxy]phenylamino}pyrimidine] | ≤ 500 |
